These results are taken from patent US10556888B2, “Pyrazole compounds or salts thereof, preparation methods therefor, herbicidal compositions and use thereof” (QINGDAO KINGAGROOT CHEMICAL COMPOUNDS CO., LTD, priority 2015, dated 2020).

Series [1] has as its system Monocotyledonous and dicotyledonous weed. The series is described as follows: Post-emergence test experiment, weed control effect (Table 2). It is filed as in vivo. Also on record: key to weed control effect, Setaria viridis (level) / weed control effect, Rorippa indica (level) / weed control effect, Abutilon theophrasti (level) / weed control effect, Echinochloa crus-galli (level) / weed control effect, Digitaria sanguinalis (level): Level 10: completely dead; Level 9: above 90% growth inhibition rate; Level 8: above 80% growth inhibition rate; Level 7: above 70% growth inhibition rate; Level 6: above 60% growth inhibition rate; Level 5: above 50% growth inhibition rate; Level 4: above 30% growth inhibition rate; Level 3: above 20% growth inhibition rate; Level 2: above 10% growth inhibition rate; Level 1: above 1-10% growth inhibition rate; Level 0: no effect. To be noted: 3 weeks after spraying, greenhouse. On the procedure:
(§1) Post-emergence test experiment: Monocotyledonous and dicotyledonous weed seeds and main crop seeds (i.e. wheat, corn, rice, soybean, cotton, oilseed, millet and sorghum.) were put into a plastic pot loaded with soil. Then covered with 0.5-2 cm soil, the seeds were allowed to grow in good greenhouse environment. The test plants were treated at 2-3 leaf stage 2-3 weeks after sowing. The test compounds of the invention were dissolved with acetone respectively, then added with 80 tween and diluted by certain amount of water to certain concentration. The solution was sprayed to the plants with a sprayer. Then the plants were cultured for 3 weeks in the greenhouse.

Series [2] has as its system main crop (wheat, corn, rice, soybean, cotton, oilseed, millet and sorghum). The series is described as follows: Post-emergence test experiment, main crops (Table 2). It is filed as in vivo. Also on record: key: Level 10: completely dead; Level 9: above 90% growth inhibition rate; Level 8: above 80% growth inhibition rate; Level 7: above 70% growth inhibition rate; Level 6: above 60% growth inhibition rate; Level 5: above 50% growth inhibition rate; Level 4: above 30% growth inhibition rate; Level 3: above 20% growth inhibition rate; Level 2: above 10% growth inhibition rate; Level 1: above 1-10% growth inhibition rate; Level 0: no effect. To be noted: 3 weeks after spraying, greenhouse. On the procedure: as §1

SMILES strings stand for the structures.

On to `Cc1nn(C)cc1C(=O)Oc1c(C(=O)c2ccc(S(C)(=O)=O)c(Cn3cccn3)c2Cl)cnn1C` [Compound 08], for which, in series [1] (60 g/ha), the “weed control effect, Abutilon theophrasti (level)” value was 10; the “weed control effect, Bidens pilosa (level)” value is recorded as 8 (Level 8: above 80% growth inhibition rate); the “weed control effect, Digitaria sanguinalis (level)” value was 7 (Level 7: above 70% growth inhibition rate); the “weed control effect, Echinochloa crus-galli (level)” value is reported as 9 (Level 9: above 90% growth inhibition rate). Also, in series [1] (60 g/ha), the “weed control effect, Rorippa indica (level)” value is recorded as 10 and the “weed control effect, Setaria viridis (level)” value is given as 7 (Level 7: above 70% growth inhibition rate). Besides, in series [2] (60 g/ha), the “effect on crop, corn (level)” value is 1 (Level 1: above 1-10% growth inhibition rate); the “effect on crop, rice (level)” value is 1 (Level 1: above 1-10% growth inhibition rate); the “effect on crop, wheat (level)” value is reported as 1 (Level 1: above 1-10% growth inhibition rate).

For the compound `Cc1ccn(Cc2c(S(C)(=O)=O)ccc(C(=O)c3c(C4CC4)nn(C)c3OC(=O)c3cn(C)nc3C)c2Cl)n1` [Compound 09], in series [1] (120 g/ha), the “weed control effect, Abutilon theophrasti (level)” value was 7 (Level 7: above 70% growth inhibition rate); the “weed control effect, Bidens pilosa (level)” value is listed as 9 (Level 9: above 90% growth inhibition rate); the “weed control effect, Digitaria sanguinalis (level)” value is on record as 2 (Level 2: above 10% growth inhibition rate); the “weed control effect, Echinochloa crus-galli (level)” value is on record as 9 (Level 9: above 90% growth inhibition rate). For the same compound, in series [1] (120 g/ha), the “weed control effect, Rorippa indica (level)” value is 10 and the “weed control effect, Setaria viridis (level)” value is on record as 6 (Level 6: above 60% growth inhibition rate). Further, in series [2] (120 g/ha), the “effect on crop, corn (level)” value is reported as 0; the “effect on crop, rice (level)” value is on record as 1 (Level 1: above 1-10% growth inhibition rate); the “effect on crop, wheat (level)” value was found to be 0.

Turning to `Cc1cc(C)n(Cc2c(S(C)(=O)=O)ccc(C(=O)c3c(C4CC4)nn(C)c3OC(=O)c3cn(C)nc3C)c2Cl)n1` [Compound 11], in series [1] (120 g/ha), the “weed control effect, Abutilon theophrasti (level)” value is reported as 4 (Level 4: above 30% growth inhibition rate); the “weed control effect, Bidens pilosa (level)” value is 6 (Level 6: above 60% growth inhibition rate); the “weed control effect, Digitaria sanguinalis (level)” value amounted to 0; the “weed control effect, Echinochloa crus-galli (level)” value turned out to be 10. In series [1] (120 g/ha), the “weed control effect, Rorippa indica (level)” value came to 0 and the “weed control effect, Setaria viridis (level)” value is recorded as 6 (Level 6: above 60% growth inhibition rate). Further, in series [2] (120 g/ha), the “effect on crop, corn (level)” value is reported as 0; the “effect on crop, rice (level)” value was 0; the “effect on crop, wheat (level)” value is given as 0.

For `Cc1cnn(Cc2c(S(C)(=O)=O)ccc(C(=O)c3c(C4CC4)nn(C)c3OC(=O)c3cn(C)nc3C)c2Cl)c1` [Compound 12], in series [1] (120 g/ha), the “weed control effect, Abutilon theophrasti (level)” value is listed as 6 (Level 6: above 60% growth inhibition rate); the “weed control effect, Bidens pilosa (level)” value was 6 (Level 6: above 60% growth inhibition rate); the “weed control effect, Digitaria sanguinalis (level)” value is on record as 0; the “weed control effect, Echinochloa crus-galli (level)” value came out at 10. In addition, in series [1] (120 g/ha), the “weed control effect, Rorippa indica (level)” value is 4 (Level 4: above 30% growth inhibition rate) and the “weed control effect, Setaria viridis (level)” value is 1 (Level 1: above 1-10% growth inhibition rate). Also, in series [2] (120 g/ha), the “effect on crop, corn (level)” value came to 0; the “effect on crop, rice (level)” value was determined as 0; the “effect on crop, wheat (level)” value is listed as 0.

As to `Cc1nn(C)cc1C(=O)Oc1c(C(=O)c2ccc(S(C)(=O)=O)c(Cn3cccn3)c2Cl)c(C2CC2)nn1C` [Compound 13], in series [1] (60 g/ha), the “weed control effect, Abutilon theophrasti (level)” value stood at 10; the “weed control effect, Bidens pilosa (level)” value is recorded as 8 (Level 8: above 80% growth inhibition rate); the “weed control effect, Digitaria sanguinalis (level)” value came to 10; the “weed control effect, Echinochloa crus-galli (level)” value is on record as 10. In series [1] (60 g/ha), the “weed control effect, Rorippa indica (level)” value is on record as 10 and the “weed control effect, Setaria viridis (level)” value is given as 7 (Level 7: above 70% growth inhibition rate). In series [2] (60 g/ha), the “effect on crop, corn (level)” value is recorded as 0; the “effect on crop, rice (level)” value was 1 (Level 1: above 1-10% growth inhibition rate); the “effect on crop, wheat (level)” value was 1 (Level 1: above 1-10% growth inhibition rate).

Turning to `Cc1cnn(Cc2c(S(C)(=O)=O)ccc(C(=O)c3c(C)nn(C)c3OC(=O)c3cnn(C)c3)c2Cl)c1` [Compound 14], in series [1] (120 g/ha), the “weed control effect, Abutilon theophrasti (level)” value was 6 (Level 6: above 60% growth inhibition rate); the “weed control effect, Bidens pilosa (level)” value is 6 (Level 6: above 60% growth inhibition rate); the “weed control effect, Digitaria sanguinalis (level)” value is 0; the “weed control effect, Echinochloa crus-galli (level)” value worked out at 10. For the same compound, in series [1] (120 g/ha), the “weed control effect, Rorippa indica (level)” value is 4 (Level 4: above 30% growth inhibition rate) and the “weed control effect, Setaria viridis (level)” value is 1 (Level 1: above 1-10% growth inhibition rate). In addition, in series [2] (120 g/ha), the “effect on crop, corn (level)” value was found to be 0; the “effect on crop, rice (level)” value is given as 0; the “effect on crop, wheat (level)” value came out at 0.

As for `Cc1ccn(Cc2c(S(C)(=O)=O)ccc(C(=O)c3c(C)nn(C)c3OC(=O)c3cnn(C)c3)c2Cl)n1` [Compound 15], in series [1] (120 g/ha), the “weed control effect, Abutilon theophrasti (level)” value is 9 (Level 9: above 90% growth inhibition rate); the “weed control effect, Bidens pilosa (level)” value is given as 8 (Level 8: above 80% growth inhibition rate); the “weed control effect, Digitaria sanguinalis (level)” value is 4 (Level 4: above 30% growth inhibition rate); the “weed control effect, Echinochloa crus-galli (level)” value came to 10. Further, in series [1] (120 g/ha), the “weed control effect, Rorippa indica (level)” value stood at 10 and the “weed control effect, Setaria viridis (level)” value is 5 (Level 5: above 50% growth inhibition rate). In series [2] (120 g/ha), the “effect on crop, corn (level)” value is given as 0; the “effect on crop, rice (level)” value is 1 (Level 1: above 1-10% growth inhibition rate); the “effect on crop, wheat (level)” value was 0.

For the compound `Cc1nn(C)c(OC(=O)c2cnn(C)c2)c1C(=O)c1ccc(S(C)(=O)=O)c(Cn2cccn2)c1Cl` [Compound 16], in series [1] (60 g/ha), the “weed control effect, Abutilon theophrasti (level)” value worked out at 10; the “weed control effect, Bidens pilosa (level)” value is listed as 8 (Level 8: above 80% growth inhibition rate); the “weed control effect, Digitaria sanguinalis (level)” value stood at 10; the “weed control effect, Echinochloa crus-galli (level)” value was 10. Moreover, in series [1] (60 g/ha), the “weed control effect, Rorippa indica (level)” value worked out at 10 and the “weed control effect, Setaria viridis (level)” value was 8 (Level 8: above 80% growth inhibition rate). In series [2] (60 g/ha), the “effect on crop, corn (level)” value worked out at 0; the “effect on crop, rice (level)” value was 1 (Level 1: above 1-10% growth inhibition rate); the “effect on crop, wheat (level)” value is 1 (Level 1: above 1-10% growth inhibition rate).

As to `Cc1cnn(Cc2c(S(C)(=O)=O)ccc(C(=O)c3cnn(C)c3OC(=O)c3cnn(C)c3)c2Cl)c1` [Compound 17], in series [1] (120 g/ha), the “weed control effect, Abutilon theophrasti (level)” value is given as 6 (Level 6: above 60% growth inhibition rate); the “weed control effect, Bidens pilosa (level)” value is on record as 6 (Level 6: above 60% growth inhibition rate); the “weed control effect, Digitaria sanguinalis (level)” value is 0; the “weed control effect, Echinochloa crus-galli (level)” value is listed as 10. Moreover, in series [1] (120 g/ha), the “weed control effect, Rorippa indica (level)” value was 4 (Level 4: above 30% growth inhibition rate) and the “weed control effect, Setaria viridis (level)” value is listed as 1 (Level 1: above 1-10% growth inhibition rate). Also, in series [2] (120 g/ha), the “effect on crop, corn (level)” value was determined as 0; the “effect on crop, rice (level)” value came to 0; the “effect on crop, wheat (level)” value is recorded as 0.

Take `Cn1cc(C(=O)Oc2c(C(=O)c3ccc(S(C)(=O)=O)c(Cn4cc(Cl)cn4)c3Cl)c(C3CC3)nn2C)cn1` [Compound 18]: in series [1] (120 g/ha), the “weed control effect, Abutilon theophrasti (level)” value was 9 (Level 9: above 90% growth inhibition rate); the “weed control effect, Bidens pilosa (level)” value was 8 (Level 8: above 80% growth inhibition rate); the “weed control effect, Digitaria sanguinalis (level)” value is 4 (Level 4: above 30% growth inhibition rate); the “weed control effect, Echinochloa crus-galli (level)” value worked out at 10. In series [1] (120 g/ha), the “weed control effect, Rorippa indica (level)” value is recorded as 10 and the “weed control effect, Setaria viridis (level)” value is on record as 5 (Level 5: above 50% growth inhibition rate). In addition, in series [2] (120 g/ha), the “effect on crop, corn (level)” value is recorded as 0; the “effect on crop, rice (level)” value was 1 (Level 1: above 1-10% growth inhibition rate); the “effect on crop, wheat (level)” value was found to be 0.

Take `Cn1cc(C(=O)Oc2c(C(=O)c3ccc(S(C)(=O)=O)c(Cn4cccn4)c3Cl)c(C3CC3)nn2C)cn1` [Compound 19]: in series [1] (60 g/ha), the “weed control effect, Abutilon theophrasti (level)” value is 10; the “weed control effect, Bidens pilosa (level)” value was 8 (Level 8: above 80% growth inhibition rate); the “weed control effect, Digitaria sanguinalis (level)” value was determined as 10; the “weed control effect, Echinochloa crus-galli (level)” value amounted to 10. In series [1] (60 g/ha), the “weed control effect, Rorippa indica (level)” value was 10 and the “weed control effect, Setaria viridis (level)” value was 8 (Level 8: above 80% growth inhibition rate). Besides, in series [2] (60 g/ha), the “effect on crop, corn (level)” value was 0; the “effect on crop, rice (level)” value was 1 (Level 1: above 1-10% growth inhibition rate); the “effect on crop, wheat (level)” value is listed as 0.
